Test results: patent publication US9439982B2, “Fluorescent cyanine-polyamine derivatives as a diagnostic probe” (PIERRE FABRE MEDICAMENT, priority 2010, dated 2016)
Several values for one entry are separate records, joined by “and”; a condition that tells them apart may be missing. Equal entries are not always repeated.

Tests used:
[1] = system: B16/F10-Luc mouse melanoma cells; assay: In vivo detection by fluorescence imaging of the probe accumulating in a tumour on an animal; conditions: for Tumour fixation: Fluorescence at t = 24 hrs: individual mice, 24 hrs post-injection, subcutaneous B16/F10-Luc tumour in C57B16 mice; for Tumour fixation: Mean fluorescence: 24 hrs; for Detection of the probe's fluorescence in the tumour in vivo: tumour B16F10 in mice, fluorescence imaging after intravenous injection
Experimental: (§1) 6 healthy male C57B16 mice, aged 11 weeks, were used to evaluate the tolerance of the injection of increasing doses of the probe of example 7 (F98942) (25, 50 and 100 μg). 11 male C57B16 mice aged 10 weeks were grafted subcutaneously on the right rear paw with 2.5.10^5 B16/F10-Luc mouse melanoma cells.
(§2) The probe F98942 is placed in solution in sterile 5% glucose serum extemporaneously.
The mice were injected with 50 μg or 25 μg of F98942 or PBS (Phosphate Buffered Saline) intravenously. They were then anaesthetised by isoflurane gas inhalation (3% isoflurane/oxygen) prior to the fluorescence imaging examination 24 and 48 hours post-injection. After 48 hours, the tumours were removed and analysed by means of fluorescence imaging. […]

[2] = Tolerance of the injection of increasing doses of the probe in healthy mice; type: in vivo; conditions: healthy male C57B16 mice, 25, 50 and 100 μg
Experimental: as §1, §2

CCCCN1/C(=C/C=C/C=C/C=C/C2=[N+](CCCCCC(=O)NCCCNCCCCNCCCN)c3ccccc3C2(C)C)C(C)(C)c2ccccc21.[Br-] [Example F98942, 1-(5-{3-[4-(3-aminopropylamino)butylamino]-propylcarbamoyl}-pentyl)-2-{(1E,3E,5E)-7-[1-butyl-3,3-dimethyl-1,3-dihydroindol-(2E)-ylidene]-hepta-1,3,5-trienyl}-3,3-dimethyl-3H-indolium bromide]
Tumour fixation: Fluorescence at t = 24 hrs ([1]; 25 μg intravenously): 1.52 · 10^7 [p/s/cm^2/sr]/[μW/cm^2] and 2.10 · 10^7 [p/s/cm^2/sr]/[μW/cm^2]
Tumour fixation: Fluorescence at t = 24 hrs ([1]; 50 μg intravenously): 3.22 · 10^7 [p/s/cm^2/sr]/[μW/cm^2] and 3.08 · 10^7 [p/s/cm^2/sr]/[μW/cm^2] and 3.12 · 10^7 [p/s/cm^2/sr]/[μW/cm^2] and 3.01 · 10^7 [p/s/cm^2/sr]/[μW/cm^2]
Tumour fixation: Mean fluorescence ([1]; mean of mice 1-4, 50 μg intravenously): 3.14 · 10^7 [p/s/cm^2/sr]/[μW/cm^2]
Tumour fixation: Mean fluorescence ([1]; mean of mice 5-6, 25 μg intravenously): 1.81 · 10^7 [p/s/cm^2/sr]/[μW/cm^2]
Detection of the probe's fluorescence in the tumour in vivo [1]: detected
Tolerance of injection [2]: well-tolerated regardless of the dose

CC1(C)C(/C=C/C2=C(c3ccc(C(=O)NCCCNCCCCNCCCN)cc3)C(=C/C=C3/N(CCCCS(=O)(=O)O)c4ccc5ccccc5c4C3(C)C)/CCC2)=[N+](CCCCS(=O)(=O)[O-])c2ccc3ccccc3c21 [comparative probe, reference compound]
Detection of the probe's fluorescence in the tumour in vivo [1]: not detected
